This is an account of results in publication PMC9311539, “Antibacterial Activity against Clinical Isolates and In Vivo Efficacy of Coralmycins” (Antibiotics, 2022).

≈ marks a conversion by molar mass, not a printed value. Read-outs that look alike come from different tables or passages of the source.

One data set has as its system MSSA. Put plainly: MIC, broth microdilution, clinical isolates: MSSA. The data set is classed as cell-based. As to conditions: Staphylococcus aureus; for MIC90: read-out: MIC90. As to the method: (§1) To assess the MICs for antibiotic susceptibility, Gram-positive bacteria isolated from human clinical specimens were obtained from several general hospitals in Seoul, Korea, during 2002–2018. Staphylococcus aureus Giorgio and Streptococcus pneumoniae ATCC49619 were used to test in vivo efficacies against […], in mice.
(§2) The MICs of the antimicrobial agents were determined by a twofold microdilution broth method, as described by the Clinical and Laboratory Standards Institute. Briefly, test organisms were grown on Mueller–Hinton agar (MHA, BD Difco, Sparks, MD, USA) plates, subcultured into cation-adjusted Mueller–Hinton broth (CAMHB, BD Difco, Sparks, MD, USA), and incubated for 18 h at 35 °C. For S. pneumoniae culture, 5% sheep blood (Hanil Comed, Seongnam, Korea) was added. The cultured bacteria were diluted using phosphate-buffered saline (PBS) to achieve a bacterial cell density of approximately 5 × 10^6 CFU/mL. All test organisms were loaded into 96-well plates containing serial dilutions of the antimicrobial agents to achieve a concentration of 5 × 10^4 CFU/well. The plates were incubated at 35 °C for 18–20 h and examined for bacterial growth.
A general note: Broth dilution looks for growth in wells or tubes with falling amounts of substance.

The test system of a further data set is VRE. Put plainly: MIC, broth microdilution, clinical isolates: VRE. The data set is classed as cell-based, vancomycin-resistant Enterococcus. Conditions: for MIC50: read-out: MIC50. On the procedure:
as §1, §2

Another data set deals with S. pneumoniae. In words: MIC, broth microdilution, clinical isolates: S. pneumoniae. Format: cell-based, Streptococcus pneumoniae. Conditions: for MIC50: read-out: MIC50. As to the method: as §1, §2
Data set [1] has as its system Vancomycin-sensitive E. faecalis. Put plainly: MIC, broth microdilution, clinical isolates: vancomycin-sensitive E. faecalis. Format: cell-based, Enterococcus faecalis. Conditions: Enterococcus faecalis, 32 clinical isolates; for MIC50: read-out: MIC50; for MIC90: read-out: MIC90. On the procedure: as §1, §2
In data set [2] the test system is Vancomycin-sensitive E. faecium. Put plainly: MIC, broth microdilution, clinical isolates: vancomycin-sensitive E. faecium. Conditions: Enterococcus faecium, 32 clinical isolates; for MIC50: read-out: MIC50; for MIC90: read-out: MIC90. Format: cell-based, Enterococcus faecium. As to the method:
as §1, §2

The subject of the next data set is MRSA. In words: MIC, broth microdilution, clinical isolates: MRSA. Format: cell-based, Staphylococcus aureus. As to conditions: Staphylococcus aureus, MRSA, 42 clinical isolates; for MIC50: read-out: MIC50; for MIC90: read-out: MIC90. As to the method:
as §1, §2

In data set [3] the test system is CNS (coagulase-negative staphylococci). Put plainly: MIC, broth microdilution, clinical isolates: CNS. Format: cell-based. As to conditions: 31 clinical isolates; for MIC50: read-out: MIC50; for MIC90: read-out: MIC90. On the procedure: as §1, §2
For data set [4] the following is noted: highly protein-bound antibacterial agents in clinical use; cited from earlier work.
The subject of another data set is S. aureus Giorgio. Put plainly: Time-kill assay, S. aureus Giorgio. As to conditions: 2× and 4× MIC, 24 h. The data set is classed as cell-based, Staphylococcus aureus. On the procedure: (§3) Time-kill analysis was performed by the NCCLS M26-A method. The test organisms (S. aureus Giorgio, S. pneumoniae ATCC49619, MRSA CCARM 3167, and VRE 3) incubated in CAMHB for 18 h at 35 °C were diluted to 10^5 CFU/mL with fresh CAMHB, and the diluted cultures were preincubated for 2 h. For S. pneumoniae culture, 5% sheep blood (Hanil Comed, Seongnam, Korea) was added. […] Culture aliquots (0.1 mL) were removed after 0, 2, 4, 6 and 24 h of incubation, and serial 10-fold dilutions were prepared in saline as needed. The numbers of viable cells were determined on drug-free MHA plates after 20 h of incubation. A compound was considered bactericidal if the original inoculum was reduced by 3 log CFU/mL (99.9%) at each concentration or was considered bacteriostatic if the inoculum was reduced by 0–3 log CFU/mL.

A further data set has as its system S. pneumoniae ATCC49619. Put plainly: Time-kill assay, S. pneumoniae ATCC49619. The data set is classed as cell-based, Streptococcus pneumoniae. Conditions: 2× and 4× MIC, 24 h. As to the method: as §3
A further data set has as its system MRSA CCARM 3167. In words: Time-kill assay, MRSA CCARM 3167. Conditions: 2× and 4× MIC, 24 h. The data set is classed as cell-based, Staphylococcus aureus. On the procedure: as §3
For a further data set, the system named is VRE 3. Put plainly: Time-kill assay, VRE 3. Format: cell-based, vancomycin-resistant Enterococcus. As to conditions: 2× and 4× MIC, 24 h. As to the method: as §3
The mark [5] stands for this setting: 26 clinical isolates, read-out: MIC50.
[6] abbreviates: Enterococcus, VRE, 46 clinical isolates.
Setting [7] is: Enterococcus, VRE, 46 clinical isolates, read-out: MIC90.
[8] abbreviates: Streptococcus pneumoniae, 27 S. pneumoniae isolates, read-out: MIC90.
[9] abbreviates: Streptococcus pneumoniae, 27 clinical isolates.

Regarding `CO[C@@]1(NC(=O)Cc2cccs2)C(=O)N2C(C(=O)O)=C(COC(N)=O)CS[C@@H]21` [Cefoxitin], the MIC50 in the data set on MSSA (setting [5]) is 4 µg/mL (≈ 9.36 µM); with VRE (setting [6]), greater than 32 µg/mL; in the data set with S. pneumoniae (setting [9]), greater than 32 µg/mL; in data set [1], greater than 32 µg/mL; in data set [2] it was greater than 32 µg/mL. The MIC90 was 4 µg/mL (≈ 9.36 µM) with MSSA (26 clinical isolates); greater than 32 µg/mL with VRE (setting [7]); greater than 32 µg/mL against S. pneumoniae (27 clinical isolates); greater than 32 µg/mL in the data set with S. pneumoniae (setting [8]); greater than 32 µg/mL in data set [1]; greater than 32 µg/mL in [2].
As to `CC(C)(O/N=C(\C(=O)N[C@@H]1C(=O)N2C(C(=O)[O-])=C(C[n+]3ccccc3)CS[C@H]12)c1csc(N)n1)C(=O)O` [Ceftazidime], the MIC50 in the data set with MSSA (setting [5]) was 8 µg/mL (≈ 14.6 µM); with MRSA, greater than 32 µg/mL; in data set [3], 32 µg/mL (≈ 58.5 µM); in the data set with VRE (setting [6]), greater than 32 µg/mL; in the data set with S. pneumoniae (setting [9]) it was greater than 32 µg/mL; in [1], greater than 32 µg/mL. Further, in data set [2], the MIC50 was greater than 32 µg/mL. In addition, the MIC90 in the data set on MSSA (26 clinical isolates) was 16 µg/mL (≈ 29.3 µM); in the data set with MRSA it was greater than 32 µg/mL; in data set [3] it was greater than 32 µg/mL; in the data set with VRE (setting [7]) it was greater than 32 µg/mL; against S. pneumoniae (27 clinical isolates), greater than 32 µg/mL; in the data set on S. pneumoniae (setting [8]) it was greater than 32 µg/mL. The MIC90 in [1] and in [2] was greater than 32 µg/mL throughout.
Turning to `CCCCCCCCCC(=O)N[C@@H](Cc1c[nH]c2ccccc12)C(=O)N[C@H](CC(N)=O)C(=O)N[C@@H](CC(=O)O)C(=O)N[C@@H]1C(=O)NCC(=O)N[C@@H](CCCN)C(=O)N[C@@H](CC(=O)O)C(=O)N[C@H](C)C(=O)N[C@@H](CC(=O)O)C(=O)NCC(=O)N[C@H](CO)C(=O)N[C@@H]([C@H](C)CC(=O)O)C(=O)N[C@@H](CC(=O)c2ccccc2N)C(=O)O[C@@H]1C` [Daptomycin], the MIC50 with MSSA (setting [5]) was determined as 2 µg/mL (≈ 1.23 µM); in the data set on MRSA, 2 µg/mL (≈ 1.23 µM); in data set [3], 2 µg/mL (≈ 1.23 µM); in the data set on VRE (setting [6]), 4 µg/mL (≈ 2.47 µM); in the data set with S. pneumoniae (setting [9]), 2 µg/mL (≈ 1.23 µM); in data set [1], 4 µg/mL (≈ 2.47 µM). In addition, the MIC50 in data set [2] amounted to 4 µg/mL (≈ 2.47 µM). Further, the MIC90 in the data set with MSSA (26 clinical isolates) was 4 µg/mL (≈ 2.47 µM); in the data set on MRSA, 4 µg/mL (≈ 2.47 µM); in data set [3], 4 µg/mL (≈ 2.47 µM); in the data set on VRE (46 clinical isolates) it was 8 µg/mL (≈ 4.94 µM); in the data set with VRE (Enterococcus, 46 VRE isolates, read-out: MIC90), 8 µg/mL (≈ 4.94 µM); with S. pneumoniae (27 clinical isolates), 8 µg/mL (≈ 4.94 µM). The MIC90 (with S. pneumoniae (setting [8]); in data set [1]; in [2]) was 8 µg/mL (≈ 4.94 µM) throughout.
For `CNC(C)C1CCC(N)C(OC2C(N)CC(N)C(OC3OCC(C)(O)C(NC)C3O)C2O)O1` (centres unmarked) [Gentamicin], the MIC50 in the data set with MSSA (setting [5]) is 1 µg/mL (≈ 2.09 µM); in the data set on MRSA, 32 µg/mL (≈ 67 µM); in data set [3] it was greater than 32 µg/mL; in the data set on VRE (setting [6]), greater than 32 µg/mL; in the data set on S. pneumoniae (setting [9]), 32 µg/mL (≈ 67 µM); in data set [1], greater than 32 µg/mL. Moreover, the MIC50 in data set [2] is greater than 32 µg/mL. Besides, the MIC90 with MSSA (26 clinical isolates) is greater than 32 µg/mL; in the data set with MRSA, greater than 32 µg/mL; in data set [3] it was greater than 32 µg/mL; with VRE (setting [7]), greater than 32 µg/mL; in the data set with S. pneumoniae (Streptococcus pneumoniae, 27 clinical isolates, read-out: MIC90), greater than 32 µg/mL; in data set [1], greater than 32 µg/mL. For the same compound, the MIC90 in data set [2] is greater than 32 µg/mL.
In the case of `C[C@H]1COc2c(N3CCN(C)CC3)c(F)cc3c(=O)c(C(=O)O)cn1c23` [Levofloxacin], the MIC50 with MSSA (setting [5]) is 0.25 µg/mL (≈ 0.692 µM); with MRSA, 16 µg/mL (≈ 44.3 µM); in [3] it was 8 µg/mL (≈ 22.1 µM); in the data set with VRE (setting [6]), greater than 32 µg/mL; with S. pneumoniae (setting [9]), 0.5 µg/mL (≈ 1.38 µM); in data set [1] it was 2 µg/mL (≈ 5.53 µM). In addition, the MIC50 in data set [2] was determined as 16 µg/mL (≈ 44.3 µM). In addition, the MIC90 was 0.5 µg/mL (≈ 1.38 µM) with MSSA (26 clinical isolates); greater than 32 µg/mL in the data set on MRSA; greater than 32 µg/mL in data set [3]; greater than 32 µg/mL in the data set with VRE (setting [7]); 16 µg/mL (≈ 44.3 µM) in the data set with S. pneumoniae (27 clinical isolates); 16 µg/mL (≈ 44.3 µM) in the data set on S. pneumoniae (setting [8]). Also, the MIC90 in data set [1] and in data set [2] was 32 µg/mL (≈ 88.6 µM) in each case.
`C[C@@H](O)[C@H]1C(=O)N2C(C(=O)O)=C(S[C@@H]3CN[C@H](C(=O)N(C)C)C3)[C@H](C)[C@H]12` [Meropenem]: the MIC50 is 0.125 µg/mL (≈ 0.326 µM) against MSSA; greater than 32 µg/mL in the data set on VRE (setting [6]); 0.5 µg/mL (≈ 1.3 µM) in the data set on S. pneumoniae (setting [9]); 4 µg/mL (≈ 10.4 µM) in data set [1]; greater than 32 µg/mL in [2]. Further, the MIC90 in the data set with MSSA (26 clinical isolates) is 0.25 µg/mL (≈ 0.652 µM); in the data set with VRE (setting [7]), greater than 32 µg/mL; in the data set on S. pneumoniae (27 clinical isolates) it was 4 µg/mL (≈ 10.4 µM); with S. pneumoniae (setting [8]), 4 µg/mL (≈ 10.4 µM); in [1], 16 µg/mL (≈ 41.7 µM); in data set [2], greater than 32 µg/mL.
Consider `Cc1onc(-c2ccccc2)c1C(=O)N[C@@H]1C(=O)N2[C@@H]1SC(C)(C)[C@@H]2C(=O)O` [Oxacillin], for which the MIC50 was 0.5 µg/mL (≈ 1.25 µM) with MSSA (setting [5]) and greater than 32 µg/mL in the data set on MRSA. Further, the MIC90 is 1 µg/mL (≈ 2.49 µM) with MSSA (26 clinical isolates) and greater than 32 µg/mL in the data set with MRSA.
For the compound `CO/N=C(\C(=O)N[C@@H]1C(=O)N2C(C(=O)O)=C(CSc3nc(=O)c(=O)[nH]n3C)CS[C@H]12)c1csc(N)n1` [ceftriaxone], the protein-bound in data set [4] is given as greater than 90%.
As for `O=C(O)c1cn(C2CC2)c2cc(N3CCNCC3)c(F)cc2c1=O` [ciprofloxacin], the time-kill activity result in the data set with S. aureus Giorgio, with S. pneumoniae ATCC49619, with MRSA CCARM 3167 and in the data set with VRE 3 was “bactericidal (considered bactericidal if the original inoculum was reduced by 3 log CFU/mL (99.9%) at each concentration)” in each case.
Regarding teicoplanin, in data set [4], the protein-bound is greater than 90%.

One may read the MIC50 as the lowest concentration that inhibits either 50% of growth or 50% of the strains tested, depending on the study. Usually MIC90 stands for the lowest concentration that inhibits either 90% of growth or 90% of the strains tested, depending on the study.
